Assay [1] has as its system P. aeruginosa PAl255 persisters. The assay is described as follows: Persister killing assay, isolated persister fraction of P. aeruginosa PAl255 (cystic fibrosis isolate). The class given is cell-based. On the procedure:
Persister killing—Planktonic persister cells were isolated from a stationary phase culture as described e.g. in Chen et al., 2011(Chen X, Zhang M, Zhou C, Kallenbach N R, Ren D. 2011. Control of bacterial persister cells by Trp/Arg-containing antimicrobial peptides. Appl Environ Microbiol 77:4878-4885.). Briefly, an overnight culture of P. aeruginosa PA14 and PA1255 (a cystic fibrosis isolate) was inoculated each in 50 ml 1:20 Trypticase Soy Broth (TSB). After 48 h of growth at 37° C., the culture was treated with ofloxacin at a final concentration of 10 μg/ml (5× MIC) for 5 hours at 37° C., while shaking at 200 rpm. The persister cells surviving this antibiotic treatment were isolated by centrifugation (5250 g, 15 min, 4° C.) and the cell pellet was washed twice with 20 mM HEPES buffer. Prior to treatment, cells were resuspended in the same volume of 20 mM HEPES buffer. A persister killing assay was performed as described e.g. by De Groote et al., 2009 (De Groote V N, Verstraeten N, Fauvart M, Kint C I, Verbeeck A M, Beullens S, Cornelis P, Michiels J. 2009. Novel persistence genes in Pseudomonas aeruginosa identified by high-throughput screening. FEMS Microbiol Lett 297:73-79). […] The number of persisters was determined after 72 h incubation to allow complete resuscitation of all surviving persisters. […]

The subject of assay [2] is P. aeruginosa PA14 persisters. Nature of the assay: Persister killing assay, isolated persister fraction of P. aeruginosa PA14. The class given is cell-based. On the procedure:
Persister killing—Planktonic persister cells were isolated from a stationary phase culture as described e.g. in Chen et al., 2011(Chen X, Zhang M, Zhou C, Kallenbach N R, Ren D. 2011. Control of bacterial persister cells by Trp/Arg-containing antimicrobial peptides. Appl Environ Microbiol 77:4878-4885.). Briefly, an overnight culture of P. aeruginosa PA14 and PA1255 (a cystic fibrosis isolate) was inoculated each in 50 ml 1:20 Trypticase Soy Broth (TSB). After 48 h of growth at 37° C., the culture was treated with ofloxacin at a final concentration of 10 μg/ml (5× MIC) for 5 hours at 37° C., while shaking at 200 rpm. The persister cells surviving this antibiotic treatment were isolated by centrifugation (5250 g, 15 min, 4° C.) and the cell pellet was washed twice with 20 mM HEPES buffer. Prior to treatment, cells were resuspended in the same volume of 20 mM HEPES buffer. A persister killing assay was performed as described e.g. by De Groote et al., 2009 (De Groote V N, Verstraeten N, Fauvart M, Kint C I, Verbeeck A M, Beullens S, Cornelis P, Michiels J. 2009. Novel persistence genes in Pseudomonas aeruginosa identified by high-throughput screening. FEMS Microbiol Lett 297:73-79). Briefly, a volume of 100 μl of the isolated persister fraction was mixed with polypeptides comprising peptidoglycan hydrolase or ciprofloxacin (final concentrations of 10× or 30× MIC against the respective strains), in the absence or presence of 0.5 mM EDTA-Na2 (final concentration) up to a final volume of 200 μl. Control treatments with 20 mM HEPES buffer, 0.5 mM EDTA or ofloxacin (30×and 10× MIC) were performed in parallel. The mixtures were shaken (200 rpm) for lh at 37° C. Treated persisters where washed twice with 20 mM HEPES buffer and appropriate dilutions were plated on TSB agar plates and incubated at 37° C. The number of persisters was determined after 72 h incubation to allow complete resuscitation of all surviving persisters. Each experiment was independently repeated at least 3 times.
(§1) Planktonic persister cells were isolated from a stationary-phase culture as described previously (Liebens V, Defraine V, Van der Leyden A, De Groote V N, Fierro C, Beullens S, Verstraeten N, Kint C, Jans A, Frangipani E, Visa P, Marchal K, Versées W, Fauvart M, Michiels J. 2014. A putative de-N-acetylase of the PIG-L superfamily affects fluoroquinolone tolerance in Pseudomonas aeruginosa. Pathogen. Dis. 71:39-54.) with minor modifications. An overnight culture of P. aeruginosa PA14, PAl255 (a cystic fibrosis isolate), Escherichia coil UTI-89 (isolate from chronic urinary tract infection) and Acinetobacter baumannii RUH134 (reference strain for global clone 2) was diluted 100×in 50 ml 1:20 Trypticase soy broth (TSB). After overnight growth at 37° C., the cultures were treated with either 10 μg/ml ofloxacin (P. aeruginosa strains), 200 μg/ml tobramycin (A. baumannii) or 200 μg/ml amikacin (E. coli) for 5 h at 37° C., while shaking at 200 rpm. The antibiotic concentrations were chosen to allow only persister cells to survive, based on previous time-kill curves. The persister fractions were isolated by centrifugation (5,250× g for 15 min at 4° C.), and the cell pellet was washed twice with 20 mM HEPES (pH 7.4). Prior to treatment, the cells were resuspended in a ten-fold reduced volume of 20 mM HEPES (pH 7.4) to concentrate the persisters.
A persister killing assay was performed as described previously (Liebens et al., 2014), with minor modifications. […]

Assay [3] deals with E. coli UTI-89 persisters. The assay is described as follows: Persister killing assay, isolated persister fraction of E. coli UTI-89 (chronic urinary tract infection isolate). The class given is cell-based, Escherichia coli. The following applies: 10× MIC.
Source text: as §1
A persister killing assay was performed as described previously (Liebens et al., 2014), with minor modifications. A volume of 100 μl of the isolated persister fraction was mixed with either the polypeptide according to SEQ ID NO: 124, 125, 126 or ciprofloxacin (final concentrations of 10× or 30× MIC against the respective strains), in the absence or presence of 0.5 mM EDTA-Na2 (final concentration) up to a final volume of 200 μl. Control treatments with 20 mM HEPES (pH 7.4), 0.5 mM EDTA, or ofloxacin/tobramycin/amikacin (30× and 10× MIC) were performed in parallel. […] The number of persisters was determined after 72 h of incubation to allow for complete resuscitation of all surviving persisters.

Where [4] appears, read: 10× and 30× MIC, with and without 0.5 mM EDTA.

Consider `O=C([O-])CN(CCN(CC(=O)[O-])CC(=O)O)CC(=O)O.[Na+].[Na+]` [EDTA, reference compound], for which the “bactericidal activity against isolated persisters” value in assay [1] (0.5 mM EDTA alone) and in assay [2] (0.5 mM EDTA alone) was “did not affect the persisters” throughout.

With `O=C(O)c1cn(C2CC2)c2cc(N3CCNCC3)c(F)cc2c1=O` [ciprofloxacin, reference compound], the “bactericidal activity against isolated persisters” value in assay [1] (setting [4]) and in assay [2] (setting [4]) was “did not affect the persisters” in each case. For the same molecule, the “killing of persisters” value in assay [3] (with and without 0.5 mM EDTA) was “did not completely kill persisters”.

B1: SEQ ID NO: 124: polypeptide comprising a fusion of Sarcotoxin IA (SEQ ID NO: 48) and KZ144 (SEQ ID NO: 11), active against vegetative cells of E. coli (protein)
chain: MKFFRKLKKSVKKRAKEFFKKPRVIGVSIPFGSKVLRKGDRGDEVCQLQTLLNLCGYDVGKPDGIFGNNTFNQVVKFQKDNCLDSDGIVGKNTWAELFSKYSPPIPYKTIPMPTANKSRAAATPVMNAVENATGVRSQLLLTFASIESAFDYEIKAKTSSATGWFQFLTGTWKTMIENYGMKYGVLTDPTGALRKDPRISALMGAELIKENMNILRPVLKREPTDTDLYLAHFFGPGAARRFLTTGQNELAATHFPKEAQANPSIFYNKDGSPKTIQEVYNLMDGKVAAHRKLEHHHHHH
modifications: SarcotoxinIA-KZ144his
On to B1, for which the “killing of persisters” value in assay [3] (with 0.5 mM EDTA) is given as “completely eradicated”. The “killing of persisters” value in assay [3] (without 0.5 mM EDTA) was “did not completely kill persisters”. Moreover, in assay [2] (30× MIC, with 0.5 mM EDTA), the “effect on persisters” value is reported as “complete eradication” and the “reduction of the number of persisters” value is “approximately 5 log units”. Also, in assay [2] (30× MIC, without EDTA), the “reduction of the number of persisters in comparison to the 0.5 mM EDTA control” value was “approximately 2.3 log units”.
